From patent publication EP1022029A1, “NOOTROPIC AGENT” (priority 1997, dated 1999)
Like-named read-outs stand apart in the source and are kept apart here.

Columns and labels:
[1] = molecular target: T1, α7 receptor (Rattus norvegicus, UniProt Q05941); assay: ACh-evoked currents in α7 receptors expressed in Xenopus oocytes (two-electrode voltage clamp); format: cell-based; conditions: for normalized response (%): nef(+), n=5
T1 construct: expressed in transfected cells; host or cells: Xenopus oocytes injected with in vitro transcribed mRNA
Description: Two-electrode voltage-clamp technique was used to record expression α4β2 or α7 receptors in oocytes. […] The holding voltage was -30 or -60 mV for α4β2-nAChR or α7-nAChR, respectively. Downward directions correspond to inward currents.
(§1) mRNAs for the rat α4β2 receptor and α7 receptor, GLUR1, 2, 3 receptors, and NP152 and NP153 were constructed as described previously. Xenopus oocytes were manually separated from the ovary, and subjected to treatment with collagenase (0.5 mg/ml). Thereafter, the treated oocytes were incubated overnight in Barth's solution (in mM, 88 NaCl, 1 KCl, 2.4 NaHCO3, 0.82 MgSO4, 0.33 […], 0.41 CaCl2, and 7.5 Tris; pH 7.6). The oocytes were injected with the α4β2 or α7 receptor mRNA and incubated at 18°C. In some cases, NP152 and NP153 were co-expressed with the α4β2 and α7 receptors. The injected oocytes were incubated and transferred to a recording chamber 2-7 days after incubation and continuously superfused at room temperature (20-22°C) with a standard frog Ringer's solution [in mM: 115 NaCl, 2 KCl, 1.8 CaCl2, 5 HEPES; pH 7.0]. To remove the effect of endogenous muscarinic ACh receptor, 1 µM atropine was added to the extracellular solution. ACh-evoked currents were recorded by use of two-electrode voltage clamp techniques and an amplifier (GeneClamp-500, Axon Instrument, Inc. USA). The currents were analyzed on a microcomputer by pClamp software (Axon Instrument, Inc.; Version 6). From the results, an assessment was made as to whether nefiracetam actually acts on the nACh receptors.

[2] = system: excitatory postsynaptic potential in the brain; assay: Excitatory postsynaptic potential (PS) in the brain in vivo, hippocampal granular cell layer; parameters: species or system mice
Description: A group of mice were provided. The head of each mouse was fixed, and electrodes were inserted into the granular cell layer of the hippocampal region. PS was recorded. Nefiracetam was intramuscularly injected (7.5 mg/kg). […] This effect was confirmed even after 960 minutes. Thus, the effect obtained in vitro was also confirmed in an in vivo experiment […].

[3] = molecular target: T2, nACh receptors (α, β, γ, δ) of Torpedo (Tetronarce californica, UniProt P02710+P02712+P02714+P02718); assay: ACh-evoked currents in normal nACh receptors expressed in Xenopus oocytes (two-electrode voltage clamp); format: cell-based
T2 construct: expressed in transfected cells; host or cells: Xenopus oocytes
Description: Cell membrane currents were recorded by use of two-electrode voltage clamp techniques (T. Nishizaki et al., Ikeuchi, Brain Res. 687, 214, 1995). ACh (100 µM) was administered to a single oocyte expressing normal ACh receptors at 10-min intervals before and after 10-min treatment of the oocyte with nefiracetam. The holding voltage was -30 mV. In accordance with a conventional method, wild-type acetylcholine (nACh) receptors were expressed in Xenopus oocytes (K. Sumikawa et al., Mol. Brain Res. 5, 183, 1989), and by the application of ACh (100 µM), inward membrane currents were evoked (Table 13). Currents were recorded at 10-min intervals. During the recording period, spontaneous attenuation of the currents was within 5% (data not shown). […] After the drug was washed out, the amplitude gradually recovered (Table 13). The reductions in current were 70% (n=7) with 0.01 µM and 62% with 0.1 µM nefiracetam.
ACh (100 µM) was applied to each of an oocyte expressing normal ACh receptors and an oocyte expressing mutant ACh receptors (mγΔPKA/Ser353, 354m δΔPKA/Ser361,362) lacking PKA phosphorylation sites, before and after treatment with nefiracetam (0.01 µM). The oocytes expressing normal ACh receptors were treated with H-89 (1 µM) from 15 min before recording, or with pertussis toxin (0.1 µg/ml) for 24h prior to experiments. The currents illustrated in Table 16 were recorded before and 30 min after treatment with nefiracetam. The holding voltage was - 30 mV. In Table 16, each point represents the average obtained from seven oocytes.
ACh (100 µM) was applied to each of an oocyte expressing normal ACh receptors and an oocyte expressing mutant ACh receptors (mγΔPKA/Ser353,354m δΔPKA/Ser361,362) lacking PKA phosphorylation sites, in the presence and absence of GF109203X (100 nM) or in calcium-free extracellular solution.

[4] = molecular target: T3, α4β2 receptor (Rattus norvegicus, UniProt P09483+P12390); assay: ACh-evoked currents in α4β2 receptors expressed in Xenopus oocytes (two-electrode voltage clamp); format: cell-based; conditions: for normalized response (%): nef(+), n=5
T3 construct: expressed in transfected cells; host or cells: Xenopus oocytes injected with in vitro transcribed mRNA
Description: Two-electrode voltage-clamp technique was used to record expression α4β2 or α7 receptors in oocytes. ACh (100 µM) was applied to a single oocyte in the presence or absence of α-BuTX (50 nM) or MCA (3 µM). The holding voltage was -30 or -60 mV for α4β2-nAChR or α7-nAChR, respectively. Downward directions correspond to inward currents.
as §1

[5] = 1 h, nefiracetam 1 µM, 60 minutes after treatment, read-out: ACh-evoked currents potentiated, reaching
[6] = Nefiracetam 0.01 µM, n = 5 to 8, read-out: % of the original amplitude
[7] = Nefiracetam 0.1 µM, n = 5 to 8, read-out: % of the original amplitude
[8] = Nefiracetam 1 µM, n = 5 to 8, read-out: % of the original amplitude
[9] = Nefiracetam 10 µM, n = 5 to 8, read-out: % of the original amplitude
[10] = in the presence of the inactive PKC inhibitory peptide (NP153; iPKCI)

T1 sequence (Q05941 23-502): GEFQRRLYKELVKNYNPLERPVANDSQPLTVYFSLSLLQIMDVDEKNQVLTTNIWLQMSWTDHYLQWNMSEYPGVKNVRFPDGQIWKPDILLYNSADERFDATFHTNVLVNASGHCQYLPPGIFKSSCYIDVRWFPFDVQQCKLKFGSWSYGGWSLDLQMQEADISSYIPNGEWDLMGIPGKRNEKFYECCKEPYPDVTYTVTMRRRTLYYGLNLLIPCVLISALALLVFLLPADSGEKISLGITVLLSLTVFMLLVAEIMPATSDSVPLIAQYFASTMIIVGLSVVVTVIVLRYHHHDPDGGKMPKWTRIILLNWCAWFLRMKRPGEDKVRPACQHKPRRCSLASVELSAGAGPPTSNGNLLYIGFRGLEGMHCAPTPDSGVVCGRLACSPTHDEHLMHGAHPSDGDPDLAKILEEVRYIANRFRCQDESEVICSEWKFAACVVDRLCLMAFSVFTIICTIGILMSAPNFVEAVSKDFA
T2 sequence (P02718 22-522): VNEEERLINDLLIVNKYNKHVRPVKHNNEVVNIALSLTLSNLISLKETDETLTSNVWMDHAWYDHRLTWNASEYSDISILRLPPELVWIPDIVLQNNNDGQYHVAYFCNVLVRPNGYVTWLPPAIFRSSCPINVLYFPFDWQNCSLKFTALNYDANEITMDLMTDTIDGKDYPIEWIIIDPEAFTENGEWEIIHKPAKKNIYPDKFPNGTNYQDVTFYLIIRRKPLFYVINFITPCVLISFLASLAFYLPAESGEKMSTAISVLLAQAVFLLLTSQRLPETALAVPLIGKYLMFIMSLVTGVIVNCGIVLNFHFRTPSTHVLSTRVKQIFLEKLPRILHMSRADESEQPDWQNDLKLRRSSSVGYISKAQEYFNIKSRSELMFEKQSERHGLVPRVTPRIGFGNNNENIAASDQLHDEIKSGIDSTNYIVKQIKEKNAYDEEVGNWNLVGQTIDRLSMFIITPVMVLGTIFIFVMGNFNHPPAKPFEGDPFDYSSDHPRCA
T2 sequence (P02712 25-493): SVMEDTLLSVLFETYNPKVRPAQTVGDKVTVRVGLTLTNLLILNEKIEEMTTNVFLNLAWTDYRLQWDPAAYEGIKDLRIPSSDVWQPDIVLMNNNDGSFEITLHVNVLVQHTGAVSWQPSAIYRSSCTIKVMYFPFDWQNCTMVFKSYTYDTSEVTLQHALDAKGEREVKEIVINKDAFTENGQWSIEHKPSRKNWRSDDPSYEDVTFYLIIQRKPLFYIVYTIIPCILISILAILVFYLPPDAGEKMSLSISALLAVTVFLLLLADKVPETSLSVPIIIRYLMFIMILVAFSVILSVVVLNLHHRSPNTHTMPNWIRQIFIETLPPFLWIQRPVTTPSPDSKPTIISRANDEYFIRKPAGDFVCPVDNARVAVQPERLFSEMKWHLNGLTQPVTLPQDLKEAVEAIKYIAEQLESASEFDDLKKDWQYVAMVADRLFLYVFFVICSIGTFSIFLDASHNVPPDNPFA
T2 sequence (P02710 25-461): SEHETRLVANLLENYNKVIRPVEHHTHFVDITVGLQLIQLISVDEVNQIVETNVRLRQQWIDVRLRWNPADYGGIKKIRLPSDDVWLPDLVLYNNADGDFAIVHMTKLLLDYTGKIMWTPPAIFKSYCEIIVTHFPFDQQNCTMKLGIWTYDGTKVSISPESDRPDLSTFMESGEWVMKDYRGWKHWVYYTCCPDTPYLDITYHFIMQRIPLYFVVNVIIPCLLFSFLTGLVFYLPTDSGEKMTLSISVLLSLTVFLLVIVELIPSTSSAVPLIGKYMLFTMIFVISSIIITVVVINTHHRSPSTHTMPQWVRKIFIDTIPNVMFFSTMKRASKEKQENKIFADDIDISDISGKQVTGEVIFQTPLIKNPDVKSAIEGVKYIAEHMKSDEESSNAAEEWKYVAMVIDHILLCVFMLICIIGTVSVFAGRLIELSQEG
T2 sequence (P02714 18-506): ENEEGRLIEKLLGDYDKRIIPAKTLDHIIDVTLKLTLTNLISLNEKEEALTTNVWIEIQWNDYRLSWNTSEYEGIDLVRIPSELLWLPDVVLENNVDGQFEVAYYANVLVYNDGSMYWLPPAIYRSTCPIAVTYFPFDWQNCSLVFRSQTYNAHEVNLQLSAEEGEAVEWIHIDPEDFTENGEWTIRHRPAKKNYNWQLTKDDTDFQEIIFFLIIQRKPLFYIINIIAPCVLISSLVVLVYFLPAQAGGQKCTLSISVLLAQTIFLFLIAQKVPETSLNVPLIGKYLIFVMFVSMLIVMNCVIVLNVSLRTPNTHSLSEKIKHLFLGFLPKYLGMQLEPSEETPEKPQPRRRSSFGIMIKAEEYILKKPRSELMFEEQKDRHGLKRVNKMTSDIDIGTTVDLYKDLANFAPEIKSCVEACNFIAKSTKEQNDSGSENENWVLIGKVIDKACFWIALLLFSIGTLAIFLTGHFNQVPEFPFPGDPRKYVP
T3 sequence (P09483 31-630): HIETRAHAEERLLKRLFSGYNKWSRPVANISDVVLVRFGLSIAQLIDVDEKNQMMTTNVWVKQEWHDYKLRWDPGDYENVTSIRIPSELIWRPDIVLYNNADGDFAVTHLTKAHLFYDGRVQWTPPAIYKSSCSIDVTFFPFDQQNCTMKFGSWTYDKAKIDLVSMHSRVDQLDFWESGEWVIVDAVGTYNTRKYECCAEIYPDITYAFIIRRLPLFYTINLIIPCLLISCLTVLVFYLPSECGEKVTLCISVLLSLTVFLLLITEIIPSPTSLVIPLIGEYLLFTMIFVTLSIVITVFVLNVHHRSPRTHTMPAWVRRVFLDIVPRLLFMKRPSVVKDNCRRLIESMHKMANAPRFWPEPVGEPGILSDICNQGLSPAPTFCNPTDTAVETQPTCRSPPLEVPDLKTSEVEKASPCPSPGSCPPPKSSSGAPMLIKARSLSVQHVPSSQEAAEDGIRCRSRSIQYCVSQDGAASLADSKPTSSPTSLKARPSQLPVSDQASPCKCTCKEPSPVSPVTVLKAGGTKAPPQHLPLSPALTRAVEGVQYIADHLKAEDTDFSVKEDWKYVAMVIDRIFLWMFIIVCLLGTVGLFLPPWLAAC
T3 sequence (P12390 25-500): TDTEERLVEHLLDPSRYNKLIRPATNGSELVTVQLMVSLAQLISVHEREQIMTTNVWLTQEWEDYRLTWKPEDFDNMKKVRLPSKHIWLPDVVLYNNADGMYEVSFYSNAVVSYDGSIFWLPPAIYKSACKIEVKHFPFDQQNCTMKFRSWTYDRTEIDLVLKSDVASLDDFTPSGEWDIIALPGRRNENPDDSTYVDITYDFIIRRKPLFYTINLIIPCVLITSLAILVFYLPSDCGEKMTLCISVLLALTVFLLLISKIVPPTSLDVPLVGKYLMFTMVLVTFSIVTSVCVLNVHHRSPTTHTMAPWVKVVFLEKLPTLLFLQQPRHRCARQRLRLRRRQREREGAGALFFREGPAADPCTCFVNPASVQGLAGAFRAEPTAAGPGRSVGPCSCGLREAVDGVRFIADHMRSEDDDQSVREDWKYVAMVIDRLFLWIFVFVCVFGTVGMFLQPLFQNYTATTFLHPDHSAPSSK

Cc1cccc(C)c1NC(=O)CN1CCCC1=O [nefiracetam, 2-oxo-1-pyrrolidinylacetic acid 2,6-dimethylanilide]
concentration of maximum potentiation of ACh-evoked currents [1]: 1 µM
activity at 1 µM [1, 5]: 195%
normalized response (%) ([1]; ACh 0.1 µM, nefiracetam 1 µM): 0%
normalized response (%) ([1]; ACh 1 µM, nefiracetam 1 µM): 1.5%
normalized response (%) ([1]; ACh 10 µM, nefiracetam 1 µM): 3%
normalized response (%) ([1]; ACh 100 µM, nefiracetam 1 µM): 35%
normalized response (%) ([1]; ACh 1000 µM, nefiracetam 1 µM): 100%
activity at 0.01 µM [1, 6]: 97.4 ± 5.5%
activity at 0.1 µM [1, 7]: 181 ± 10.8%
activity at 1 µM [1, 8]: 195 ± 8.8%
activity at 10 µM [1, 9]: 116 ± 7.2%
currents potentiated to [1, 10]: 193.6%
concentration at which potentiation of ACh-evoked currents was observed ([1]; lowest effective concentration): ≥ 0.01 µM
time after which potentiation of the excitatory postsynaptic potential was still confirmed ([2]; 7.5 mg/kg intramuscularly, mice): ≥ 960 min
effect on excitatory postsynaptic potential (PS) in vivo ([2]; administered to animals): significant potentiation
inhibition at 0.01 µM ([3]; 0.01 µM nefiracetam for 10 min, n=7, read-out: reduction in ACh-evoked current): 70%
inhibition at 0.1 µM ([3]; 0.1 µM nefiracetam for 10 min, read-out: reduction in ACh-evoked current): 62%
activity at 1 µM ([3]; 1.5 h, 1 µM, 10-min treatment, 90 min after washing-out, n=7, read-out: ACh-evoked currents enhanced, reaching): 243%
activity at 10 µM ([3]; 1.5 h, 10 µM, 10-min treatment, 90 min after washing-out, n=7, read-out: ACh-evoked currents enhanced, reaching): 255%
ACh-evoked currents reduced to ([3]; nefiracetam in the presence of GF109203X, 30 minutes after administration, n=7): 60%
concentration of maximum potentiation of ACh-evoked currents [4]: 0.1 µM
activity at 1 µM [4, 5]: 180%
normalized response (%) ([4]; ACh 0.1 µM, nefiracetam 1 µM): 0%
normalized response (%) ([4]; ACh 1 µM, nefiracetam 1 µM): 2%
normalized response (%) ([4]; ACh 10 µM, nefiracetam 1 µM): 36%
normalized response (%) ([4]; ACh 100 µM, nefiracetam 1 µM): 66%
normalized response (%) ([4]; ACh 1000 µM, nefiracetam 1 µM): 100%
activity at 0.0001 µM ([4]; Nefiracetam 0.0001 µM, n = 5 to 8, read-out: % of the original amplitude): 100 ± 15.5%
activity at 0.001 µM ([4]; Nefiracetam 0.001 µM, n = 5 to 8, read-out: % of the original amplitude): 150 ± 13.6%
activity at 0.01 µM [4, 6]: 212 ± 20.5%
activity at 0.1 µM [4, 7]: 225 ± 18.9%
activity at 1 µM [4, 8]: 161 ± 12.6%
activity at 10 µM [4, 9]: 156 ± 17.6%
currents potentiated to [4, 10]: 169.3%
concentration at which potentiation of ACh-evoked currents was observed ([4]; lowest effective concentration): ≥ 0.0001 µM
% of the original amplitude (Ach-evoked current) ([4]; treatment as labelled, nefiracetam 1 µM, GF109203X 100 nM, peptides co-expressed, Mean ± SD, n = 6 to 8): 160 ± 5.6%
